Key:
[1] = tested on: LPS-stimulated human monocytic cell line THP-1; assay: Inhibition of pro-inflammatory cytokine secretion by LPS-stimulated THP-1 cells (ELISA); format: cell-based; conditions: 1.5 hr pre-incubation, LPS 1 μg/mL 24 hr
Experimental: Cell-based assays. Human monocytic cell line THP-1 (ATCC, Manassas, VA) was cultured in RPMI media supplemented with 10% fetal bovine serum (FBS) and antibiotics penicillin/streptomycin in a 37° C. 5% CO 2 incubator. Cells were plated at 0.25×10^6 cells/well in a 24-well cell culture plate and pre-incubated for 1.5 hr with Glatopa, PT-001 or PT-002 at the final concentration 0.1 μg/mL or 10 μg/mL each, followed by addition of lipopolysaccharide (LPS) at the final concentration of 1 μg/mL and incubation for 24 hr in a 37° C. 5% CO2 incubator. Plates were centrifuged and supernatants (100 μL) were tested for levels of pro-inflammatory cytokines IL-1β, IL-6 and TNF-α using commercial ELISA kits (R&D System for IL-1β, BioLegend for IL-6 and TNF-α). […] Percent inhibition is calculated as 100-(cytokine concentration in presence of inhibitor/cytokine concentration without inhibitor*100).

[2] = tested on: MOG-induced EAE in C57B1/6 female mice; assay: Prophylactic treatment of MOG35-55-induced EAE, a mouse model of MS; format: in vivo; conditions: for Incidence of EAE: 500 μg single dose co-administered with MOG 35-55 in CFA, scored Day 7 to Day 28
Excerpt: FIG. 2 is a graph showing prophylactic treatment of MOG-induced EAE in mice (an animal model for multiple sclerosis (MS)) using an EERP according to the present invention. EAE was induced in C57B1/6 female mice at 10 weeks of age by MOG35-55 (Control; depicted as diamonds) and treated prophylactically by co-administration of Glatopa (depicted as triangles), PT-001 (YFAK random copolymer, depicted as open squares), or PT-002 (EERP consisting of linear random polypeptide YFAK with the peptide AYKAAA embedded in it; depicted as cross) at 500 μg/dose each. Mice (12 per treatment group) were monitored for signs of disease for 28 days post immunization. Numbers on the ordinate represent mean clinical score of clinical symptoms monitored for the days shown on the abscissa.
FIG. 3 is a graph showing prophylactic treatment of MOG-induced EAE in mice using two different doses of an EERP according to the present invention. […] Mice (10 per treatment group) were monitored for signs of disease for 28 days post immunization. Numbers on the ordinate represent mean clinical score of clinical symptoms monitored for the days shown on the abscissa.
The EERP of the invention is further tested in vivo in a prophylactic model of MS, EAE, which is induced in female mice of C57B1/6J strain by MOG 35-55 encephalitogenic peptide co-administered with the EERP in Complete Freund's Adjuvant. […] Disease severity is based on clinical observations and is assessed on the scale from 0 to 5. […]
Prophylactic treatment of EAE, a mouse model of MS. […] Mice (12 per treatment group) were monitored daily in a blind fashion starting from Day 7 for signs of disease for 28 days post immunization. […]
Prophylactic treatment of EAE, a mouse model of MS, by 2 different doses of EERP. […] Mice (10 per treatment group) were monitored daily in a blind fashion starting from Day 7 for signs of disease for 28 days post immunization. […]

relapsing forms of MS = conditions: cited from earlier work
[3] = tested on: experimental allergic encephalomyelitis (EAE); conditions: mouse model for multiple sclerosis; cited from earlier work

Row | Compound | Percent inhibition (%) IL-1b ([1]; 0.1 μg/mL compound) | Percent inhibition (%) IL-6 ([1]; 0.1 μg/mL compound) | Percent inhibition (%) TNF-a ([1]; 0.1 μg/mL compound) | Percent inhibition (%) IL-1b ([1]; 10 μg/mL compound) | Percent inhibition (%) IL-6 ([1]; 10 μg/mL compound) | Percent inhibition (%) TNF-a ([1]; 10 μg/mL compound) | Incidence of EAE [2] | Signs of disease (clinical score) ([2]; Example 2: 500 μg/dose, single dose in immunization emulsion, subcutaneous, 28 days post immunization) | Reduction in relapses (relapsing forms of MS) | Suppression of EAE [3]
1 | glatiramer acetate [Glatopa] | 22% | −10% | −162% | 42% | −21% | −37% | 67% | – | – | –
2 | C[N+]1(C)CCC(OC(=O)C(O)(c2ccccc2)C2CCCC2)C1 (centres unmarked) [PT-001] | 21% | −8% | −5% | 77% | 84% | 34% | 0% | did not exhibit any signs of disease | – | –
3 | poly (Y, E, A, K) [Cop 1] | – | – | – | – | – | – | – | – | about 30% | capable of suppressing experimental allergic encephalomyelitis

Reference: US20230414732A1, “COMPOSITIONS OF EMBEDDED EPITOPE RANDOM PEPTIDES (EERP) FOR TREATMENT OF IMMUNE-MEDIATED CONDITIONS, AND METHODS OF USE” (PALENA THERAPEUTICS, INC., priority 2020, published 2023)
